Laboratory results from patent EP2529738A1, “Substituted terpyridines” (Max-Delbrück-Centrum für Molekulare Medizin, priority 2011, dated 2012).
“Also recorded” adds a separate entry of the source.

Columns and labels:
D/D domain of RIIα = target: T1, D/D domain of RIIα (Homo sapiens, UniProt P13861); assay: 1H,15N-HSQC NMR binding experiment with 15N-labeled D/D domain; conditions: result in words; 100 µM 15N-labeled D/D domain, 300 µM compound
T1 construct: ^15N-isotopically enriched RIIα(1-44)
T1 sequence (P13861 1-44): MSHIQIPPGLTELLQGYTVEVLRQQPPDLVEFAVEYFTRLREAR
Procedure: For an estimate of binding specificity, the compounds were tested in a second NMR assay for binding to the D/D domain of RIIα. The D/D domain contains the AKAP binding site of RIIα. Therefore, suitable small molecule mimetics of the RIIBD of AKAP18 must bind to this domain of the full length protein. In other words, binding to the D/D domain is a good initial test for an AKAP-like, specific interaction of the compounds with RIIα.
For this purpose HSQC-experiments with ^15N-labeled D/D domain were employed with the compounds depicted in table 3. The results obtained correspond to the results from the STD experiments. […] In Fig. 5, HSQC-spectra of the D/D domain in presence and absence of 25b are depicted.
^1H,^15N-Heteronuclear Single Quantum Coherence (HSQC)-NMR)
^1H,^15N-HSQC-NMR experiments were carried on a 600 MHz spectrometer at 300 K.
^1H,^15N-correlation experiments using with ^15N-isotopically enriched RIIα(1-44) were recorded using a standard HSQC pulse program or an HMQC-SOFAST pulse program, both employing WATERGATE for solvent suppression.
The protein concentration employed for binding studies was in the order of 0.1 mM. The concentration of compounds was 0.3 mM for compounds and 0.8 mM for peptides, respectively. Experiments were performed in NMR buffer containing 5% d6-DMSO. Each step was followed by recording of a new spectrum. The acquisition time in the direct dimension was restricted to 150 ms. A total of 256 increments was recorded in the indirect dimension. [formula]

full length RIIα-His = target: T2, full length RIIα-His (Homo sapiens, UniProt P13861); assay: saturation transfer difference (STD) NMR binding experiment; conditions: result in words; reduction in ligand peak intensity indicates binding
T2 construct: 20 µM unlabelled PKA-RIIα FL(1-404)-His; His (C)
T2 sequence (P13861 whole entry): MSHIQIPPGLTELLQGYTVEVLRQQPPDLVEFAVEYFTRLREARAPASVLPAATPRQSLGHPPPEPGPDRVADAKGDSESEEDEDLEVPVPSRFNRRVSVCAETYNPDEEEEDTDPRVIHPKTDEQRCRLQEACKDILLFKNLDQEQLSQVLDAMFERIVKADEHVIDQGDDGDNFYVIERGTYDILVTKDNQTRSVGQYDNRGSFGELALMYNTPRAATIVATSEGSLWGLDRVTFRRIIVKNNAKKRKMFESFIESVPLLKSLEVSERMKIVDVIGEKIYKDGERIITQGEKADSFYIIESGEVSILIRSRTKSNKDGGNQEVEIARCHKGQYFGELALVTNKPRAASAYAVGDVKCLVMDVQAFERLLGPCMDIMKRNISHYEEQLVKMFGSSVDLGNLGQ
Procedure: (§1) The compounds were tested first in a saturation transfer difference (STD) NMR experiment. For the STD experiments with the compounds depicted in table 1 full length RIIα-His was used as the target protein. Prior to measurements of STD spectra in the presence of the target protein, the same set of experiments was performed in the absence of protein in order to confirm that no saturation of the compound signals takes place when irradiating the sample at the frequency chosen for protein irradiation. […] Table 2: Qualitative results from STD and HSQC experiments with the indicated compounds.
Saturation transfer difference nuclear magnetic resonance (STD-NMR)
(§2) NMR samples for STD-NMR contained 0.1 mM of the indicated compound in NMR buffer, with a final concentration of d6-DMSO of 2%. Samples were measured in presence or absence of 20 µM unlabelled PKA-RIIα FL(1-404)-His.
STD-NMR experiments were recorded with the carrier frequency set to -1000 (around -1 ppm) for on-resonance irradiation and about 330 ppm for off-resonance irradiation. A train of 50 Gaussian-shaped pulses at 40 ms was applied, each separated by a 1-ms delay, for a total duration of 2.05 s, to achieve selective protein saturation. Spectra acquisition was done with 32 scans in absence of protein and 256 scans in presence of protein and a relaxation delay of 1.3 s. A T1ρ spin lock pulse of 40 ms was used to suppress the background protein signals. The STD spectrum was obtained from the internal subtraction of the on-resonance from the off-resonance data by phase cycling.

AKAP18α-PKA interaction = conditions: inhibition of AKAP18α-PKA interaction; cited from earlier work
[1] = behaviour of the compound in the STD-NMR sample solution; assay type: physicochemical; conditions: 0.1 mM in NMR buffer, 2% d6-DMSO; no ligand peaks measurable by NMR
Procedure: as §1
In Fig. 4, the STD-spectra of a binding compound (25b) and a non-binding compound (14b) are depicted.
as §2

Molecule: Cc1cc(-c2nc(CCCNCc3ccccc3)cc3c2CCC3)cnc1-c1cc(CCC(=O)O)cnc1C(N)=O [14c]
- change in chemical shift of D/D domain signals upon addition of compound (D/D domain of RIIα): no perturbation of chemical shifts
- binding of the compounds to RIIα in STD experiments (full length RIIα-His): No binding was detected

Molecule: CCOC(=O)CCc1cnc(C#N)c(-c2ncccc2C)c1 [compound 27]
- change in chemical shift of D/D domain signals upon addition of compound (D/D domain of RIIα): no perturbation of chemical shifts
- binding of the compounds to RIIα in STD experiments (full length RIIα-His): No binding was detected

Molecule: Cc1cc(-c2nc(CCCN)cc3c2CCC3)cnc1-c1cc(CCC(=O)O)cnc1C(N)=O [14b]
- change in chemical shift of D/D domain signals upon addition of compound (D/D domain of RIIα): no perturbation of chemical shifts
- binding of the compounds to RIIα in STD experiments (full length RIIα-His): No binding was detected

Molecule: PEDAELVRLSKRLVENAVEKAVQQY (SEQ ID 01) [AKAP18δ-L314E]
- IC50 (AKAP18α-PKA interaction): low nanomolar range

Molecule: Cc1cc(-c2nc(CCCN(Cc3ccccc3)Cc3ccccc3)cc3c2CCC3)cnc1-c1cc(CCC(=O)O)cnc1C(N)=O [25b, 3-[6-carbamoyl-5-[5-[3-[3-(dibenzylamino)propyl]-6,7-dihydro-5H-cyclopenta[c]pyridin-1-yl]-3-methyl-2-pyridyl]-3-pyridyl]propanoic acid]
- change in chemical shift of D/D domain signals upon addition of compound (D/D domain of RIIα): change in chemical shift of D/D domain signals was observed
- binding of the compounds to RIIα in STD experiments (full length RIIα-His): reduction in ligand peak intensity

Molecule: CCOC(=O)CCc1cnc(C#N)c(-c2ncc(-c3nc(CCCN(Cc4ccccc4)Cc4ccccc4)cc4c3CCC4)c(C)c2C)c1 [22a, Ethyl 3-(6-cyano-5-(5-(3-(3-(dibenzylamino)propyl)-6,7-dihydro-5H-cyclopenta[c]pyridin-1-yl)-3,4-dimethylpyridin-2-yl)pyridine-3-yl)propanoate]
- solubility in the STD-NMR sample [1]: precipitated from solution; also recorded: crystallized from the solution

Molecule: Cc1c(-c2nc(CCCN(Cc3ccccc3)Cc3ccccc3)cc3c2CCC3)cnc(-c2cc(CCC(=O)O)cnc2C(N)=O)c1C [25a, 3-[6-carbamoyl-5-[5-[3-[3-(dibenzylamino)propyl]-6,7-dihydro-5H-cyclopenta[c]pyridin-1-yl]-3,4-dimethyl-2-pyridyl]-3-pyridyl]propanoic acid]
- binding of the compounds to RIIα in STD experiments (full length RIIα-His): reduction in ligand peak intensity
